Experimental data reported in patent US11761966B2, “Nourin gene-based RNA molecular network: novel early diagnostic and prognostic biomarkers for coronary artery disease, unstable angina, STEMI/NSTEMI and heart failure” (Nour Heart, Inc., priority 2018, dated 2023).
“Also recorded” adds a separate entry of the source. Where no end group is shown, it is not given here. The star is where a group is joined. For = O=C*

Assays:
[1] = test system: Swine Flu H1N1 virus; details: mice inoculated with Swine Flu H1N1 virus; cited from earlier work
[2] = test system: Nourin; details: in-vitro; cited from earlier work
[3] = test system: miR-137; details: spontaneously hypertensive rats; cited from earlier work
[4] = test system: miR-137; assay: qPCR of Nourin RNA network in ISO rat model of HF: serum miR-137 gene expression; type: in vivo; details: for reduction of miR-137 gene expression: serum day 14, vs ISO/saline
Procedure: (§1) The standard quantitative real time PCR (qPCR) molecular assay described in Example 6 was used to determine the levels of Nourin RNA network in the ISO rat model of ischemia-induced HF. It was tested if the hypothesis that the levels of gene expression of Nourin molecular RNA Network (miR-137, miRNA-106b, mRNA FTHL-17, mRNA ANAPC11 and lncR-CTB89H12.4) will be elevated in HF rats, and that CCrP treatment will reduce their gene expression of Nourin molecular RNA Network in a dose-response manner.
(§2) After 14 days, gene expression of Nourin-dependent miR-137 and miR-106b and their signaling pathways mRNA-FTLH-17, mRNA-ANAPC11 and lncR-CTB89H12.4 were evaluated by qRT-PCR (Example 6).

[5] = test system: healthy rats
Procedure: After 14 days, ECHO analysis for Ejection Fraction (EF %) was conducted, as well as heart weight (mg), histologic analysis for fibrosis and deposition of collagen. Mean±S.E.M and one-way ANOVA analysis were used.

[6] = test system: hearts in cold storage; assay: Heart cold storage for 6 hours in HH solution (UW+CCrP) vs UW
Procedure: (§3) Furthermore, there was a higher weight gain in control hearts (UW) after 6 hours of cold storage compared to the CCrP-treated hearts (HH). […] The observed reduction of heart edema in the CCrP hearts (HH) is crucial for the restoration of contractile function during reperfusion at the end of 6-hour storage. […] Lewis rats were used for both the donors and recipients to avoid immunologic rejection. This approach allowed a focus at determining the in vivo cardioprotective benefits of CCrP treatment and to evaluate whether CCrP would restore cardiac contractility after prolonged cold storage and increase graft survival. Echocardiography (ECHO) analyses were conducted 2 hours after transplantation at day 0 and at day 3 before sacrifice.

[7] = test system: rat grafted hearts; assay: In vivo rat syngeneic abdominal heterotopic heart transplantation after 22-24 hours cold storage; details: after 22 and 24 hours of cold storage; control poor
Procedure: as §3
Saline-treated control donor rats were evidently dilated with an increase in the sizes of both ventricles and atria. Additionally, the color was mildly cyanotic and the contractility was poor and irregular in rhythm. In most control grafted hearts, their heart beating score ranged from 1+ to 2+ at day 0 and day 3. Protection was shown in most of CCrP grafted hearts at day 3 where the myocardial color and the consistency of the degree of contractility were almost the same as day zero. […] Most the control grafted hearts, on the other hand, continued to show evidence of ischemia as well as loss of wall thickness and cardiac mass by day 0 and day 3 (FIG. 43).

[8] = test system: miR-106b; assay: qPCR of Nourin RNA network in ISO rat model of HF: serum miR-106b gene expression; type: in vivo; details: for reduction of miR-106b gene expression: serum day 14
Procedure: as §1, §2

[9] = test system: lncR-CTB89H12.4; assay: qPCR of Nourin RNA network in ISO rat model of HF: serum lncR-CTB89H12.4 gene expression; type: in vivo; details: for increase of lncR-CTB89H12.4 gene expression: serum day 14
Procedure: as §1, §2

[10] = test system: mRNA-ANAPC11; assay: qPCR of Nourin RNA network in ISO rat model of HF: serum mRNA-ANAPC11 gene expression; type: in vivo; details: for reduction of mRNA-ANAPC11 gene expression: serum day 14
Procedure: as §1, §2

[11] = test system: ISO rat model of HF; assay: Standard isoproterenol (ISO) rat model of heart failure: CK-MB, ejection fraction, collagen, fibrosis, heart weight, physical activity; type: in vivo; set-up: heart weight: unit not given here; details: for Ejection Fraction (EF %) by ECHO: after 14 days
[12] = Crossing of the blood-brain barrier
[13] = test system: mRNA-FTHL-17; assay: qPCR of Nourin RNA network in ISO rat model of HF: serum mRNA-FTHL-17 gene expression; type: in vivo; details: for reduction of mRNA-FTHL-17 gene expression: serum day 14
Procedure: as §1, §2

[14] = test system: rabbit skin; details: within the first 30 minutes, neutrophil infiltration; cited from earlier work
[15] = test system: HF patients; details: small study, wide confidence intervals; cited from earlier work
[16] = test system: patients with ST-Segment Elevation Myocardial Infarction; details: EMBRACE STEMI trial; cited from earlier work

C/C=C/C[C@@H](C)[C@@H](O)[C@H]1C(=O)N[C@@H](CC)C(=O)N(C)CC(=O)N(C)[C@@H](CC(C)C)C(=O)N[C@@H](C(C)C)C(=O)N(C)[C@@H](CC(C)C)C(=O)N[C@@H](C)C(=O)N[C@H](C)C(=O)N(C)[C@@H](CC(C)C)C(=O)N(C)[C@@H](CC(C)C)C(=O)N(C)[C@H](C(C)C)C(=O)N1C [Cyclosporin H]
lung inflammation [1]: significantly reduced lung inflammation
Nourin activity [2]: inhibited Nourin activity

C[C@H](CS)C(=O)N1CCC[C@H]1C(=O)O [captopril]
miR-137 expression [3]: inhibit miR-137 expression

Cyclocreatine Phosphate [CCrP]
reduction of miR-137 gene expression ([4]; ISO/CCrP 0.4 g/kg): 33%
reduction of miR-137 gene expression ([4]; ISO/CCrP 0.8 g/kg): 75%
reduction of miR-137 gene expression ([4]; ISO/CCrP 1.2 g/kg): 68%
miR-137 gene expression (Mean) ([4]; healthy rats, CCrP 0.8 g/kg, saline-treated healthy rats 1.15): 1.60
myocardial fibrosis (Masson's trichrome) ([5]; control healthy rats, CCrP 0.8 g/kg/day, day 14): no fibrosis
toxicity in heart, liver and renal function ([5]; healthy rats, CCrP 0.8 g/kg daily for 14 days): no toxicity; also recorded: no observed toxic effect
levels of liver enzyme ALT, kidney Creatinine and Urea, CCrP vs saline ([5]; normal rats, CCrP 0.8 g/kg IP daily for 14 days): no significant difference; also recorded: no significance difference
heart weight ([5]; normal rats, CCrP 0.8 g/kg daily for 14 days): 0.6
collagen % ([5]; normal rats, CCrP 0.8 g/kg daily for 14 days, control saline 0.1): 0.1%
Ejection Fraction (EF %) by ECHO ([5]; normal rats, CCrP 0.8 g/kg daily for 14 days, control saline 64): 61%
heart weight after cold storage ([6]; 6 hours cold storage, HH solution (UW+CCrP), control (UW) 0.31 gm): 0.25 gm
recovery of contractile function ([6]; CCrP treated-group (HH) vs saline control): significantly better
general overall survival of the cardiac tissue of grafted hearts [7]: very good to excellent
reduction of miR-106b gene expression ([8]; ISO/CCrP 0.4 g/kg): 18%
reduction of miR-106b gene expression ([8]; ISO/CCrP 0.8 g/kg): 44%
reduction of miR-106b gene expression ([8]; ISO/CCrP 1.2 g/kg): 72%
miR-106b gene expression (Mean) ([8]; healthy rats, CCrP 0.8 g/kg, saline-treated healthy rats 4.62): 5.62
increase of lncR-CTB89H12.4 gene expression ([9]; ISO/CCrP 0.4 g/kg): 1.33 fold
increase of lncR-CTB89H12.4 gene expression ([9]; ISO/CCrP 0.8 g/kg): 7.66 fold
increase of lncR-CTB89H12.4 gene expression ([9]; ISO/CCrP 1.2 g/kg): 14.33 fold
lncR-CTB89H12.4 gene expression (Mean) ([9]; healthy rats, CCrP 0.8 g/kg, saline-treated healthy rats 1.1): 1.3
reduction of mRNA-ANAPC11 gene expression ([10]; ISO/CCrP 0.4 g/kg): 18%
reduction of mRNA-ANAPC11 gene expression ([10]; ISO/CCrP 0.8 g/kg): 31%
reduction of mRNA-ANAPC11 gene expression ([10]; ISO/CCrP 1.2 g/kg): 70%
mRNA-ANAPC11 gene expression (Mean) ([10]; healthy rats, CCrP 0.8 g/kg, saline-treated healthy rats 1.0): 0.9
Ejection Fraction (EF %) by ECHO ([11]; ISO/CCrP 0.4 g/kg): 54%
collagen % ([11]; ISO/CCrP 0.4 g/kg, day 14): 3.3%
heart weight ([11]; ISO/CCrP 0.4 g/kg, day 14, ISO 0.8 mg, normal saline 0.6 mg): 0.7
Serum CK-MB ([11]; ISO/CCrP 0.8 g/kg, 24 hours after last ISO injection, ISO 206.20±6.25, control saline 82.60±5.2): 70.67±5.79 U/L
heart weight ([11]; ISO/CCrP 0.8 g/kg, day 14): 0.6
Ejection Fraction (EF %) by ECHO ([11]; ISO/CCrP 0.8 g/kg/day, ISO 36, control saline 64): 64%
myocardial fibrosis (Masson's trichrome) ([11]; ISO/CCrP 0.8 g/kg/day, day 14): very low fibrosis; also recorded: delicate fibrous tissue between the myocardial bundles, almost similar to healthy normal rats
collagen % ([11]; ISO/CCrP 0.8 g/kg/day, day 14, ISO/saline 4.1): 0.7%
Ejection Fraction (EF %) by ECHO ([11]; ISO/CCrP 1.2 g/kg): 59%
collagen % ([11]; ISO/CCrP 1.2 g/kg, day 14): 0.2%
heart weight ([11]; ISO/CCrP 1.2 g/kg, day 14): 0.7
physical activity ([11]; ISO/CCrP group (n=5), day 14 before sacrifice): high physical activity
crossing of the blood-brain barrier [12]: crosses blood brain barrier
reduction of mRNA-FTHL-17 gene expression ([13]; ISO/CCrP 0.4 g/kg): 16%
reduction of mRNA-FTHL-17 gene expression ([13]; ISO/CCrP 0.8 g/kg): 30%
reduction of mRNA-FTHL-17 gene expression ([13]; ISO/CCrP 1.2 g/kg): 75%
mRNA-FTHL-17 gene expression (Mean) ([13]; healthy rats, CCrP 0.8 g/kg, saline-treated healthy rats 1.01): 0.67

Nourin: 3 KDa N-formyl peptide released by ischemic heart, inflammatory mediator (SEQ ID NO:15) (For-MIINHNLAAINSHRSPGADGNGGEAMPGGGR; listed as Homo sapiens)
inflammatory response in skin [14]: acute inflammatory response

elamipretide
left ventricular volumes [15]: reduce left ventricular volumes
primary or secondary outcomes [16]: did not improve the primary or secondary outcomes
